Measured values from patent US11034661B2, “Substituted N′-hydroxycarbamimidoyl-1,2,5-oxadiazole compounds as indoleamine 2,3-dioxygenase IDO inhibitors” (Merck Sharp & Dohme Corp., priority 2017, dated 2021).

What was measured:
HIS-tagged IDO1 protein = HIS-tagged IDO1 protein (Homo sapiens (Human), UniProt P14902); assay: IDO1 Enzyme Assay; assay type: biochemical; conditions: recombinant IDO1 40 nM, tryptophan substrate, fluorescence readout
How it was run: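 Recombinant E. coli-expressed HIS-IDO1 (40 nM final) in 50 mM Tris pH 7.0 with methylene blue, ascorbate and catalase, preincubated with compound 30 min at RT, then tryptophan added and reacted 60 min at RT. Quenched with methyl isonipecotate, heated, fluorescence read (ex 400/em 510 nm); IC50 from four-parameter logistic fit.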

[1] = biological target: IDO1 in Hela cells stimulated with IFNγ (Homo sapiens (Human), UniProt P14902); assay: IDO1 Cellular Assay in Hela Cells Stimulated with IFNγ; assay type: cell-based; conditions: IFNγ 100 ng/mL, about 48 hours, fluorescence readout, read-out: IDO1 HELA Cell Assay, IC50
How it was run: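 IFNγ-stimulated (100 ng/mL) HeLa cells with 300 uM L-tryptophan were incubated with 10-point 3-fold compound dilutions for about 48 h at 37 °C. Kynurenine product was derivatized with methyl isonipecotate overnight and read by fluorescence (ex 400/em 510 nm). Signal was background-corrected using non-IFNγ cells and normalized to DMSO, and IC50 came from a four-parameter logistic fit.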

[2] = biological target: IDO1 in human whole blood stimulated with LPS and IFNγ (Homo sapiens (Human), UniProt P14902); assay: IDO1 Human Whole Blood Assay; assay type: cell-based; conditions: LPS and IFNγ 100 ng/mL, 18 h, kynurenine by LC/MS/MS
Description: IDO1 Human Whole Blood Assay
Compounds to be tested were serially diluted in ten 3-fold steps in DMSO starting from 10 mM. 3 μL of compound dilutions or DMSO alone were then dispensed from the dilution plate into a polypropylene 96-well assay plate containing 97 μL of RPMI using an Echo 555 acoustic liquid handler (Labcyte). LPS and IFNγ was prepared in RPMI to a 10× of final conc. (1000 ng/mL), final concentration is 100 ng/mL.
Human whole blood was drawn in sodium heparin coated tubes from healthy internal donors. Two hundred forty μL of blood was transferred to each of the wells of a v-bottom 96 well plate. Thirty μL of compound was transferred from intermediate dilution plate, and incubated for 15 min. Thirty μL from stimulants was then transferred to blood and mixed thoroughly. Plate was covered with breathable membrane and incubated at 37° C. for overnight (18 h).
On day 2 isotope labeled standard of kynurenine and tryptophan was made in water at 10× concentration and 30 μL was added to the blood at 3 μM final concentration. The assay plates were centrifuged at 300×G for 10 min with no brake to separate plasma from red blood cells. Sixty μL of plasma samples was removed without disturbing red blood cells. Plasma was diluted with RPMI in 1:1 ratio and proteins were precipitated out with two volume of Acetonitrile. The plates was centrifuged at 4000×G for 60 min. Twenty μL of supernatant was carefully transferred to a 384 well plate contain 40 μL of 0.1% formic acid in water and analyzed by LC/MS/MS.
LC/MS/MS analyses were performed using Thermo Fisher's LX4-TSQ Quantum Ultra system. This system consists of four Agilent binary high-performance liquid chromatography (HPLC) pumps and a TSQ Quantum Ultra triple quadruple MS/MS instrument. For each sample, 5 μL were injected onto an Atlantis T3 column (2.1 mm×150 mm, 3 μm particle size) from Waters. The mobile phase gradient pumped at 0.8 mL/min was used to elute the analytes from the column at 25° C. The elution started at 0% B increasing linearly to 25% B at 6.5 min, holding at 25% for 1 min, re-equilibrating to 10 min. Mobile phase A consisted of 0.1% formic acid in water. Mobile phase B consisted of 0.1% of formic acid in acetonitrile. Data was acquired in positive mode using a HESI interface. The operational parameters for the TSQ Quantum Ultra instrument were a spray voltage of 4000 V, capillary temperature of 380° C., vaporizer temperature 400° C., shealth gas 60 arbitrary units, Aux gas 20 arbitrary units, tube lens 85 and collision gas 1.2 mTorr. SRM chromatograms of kynurenine (Q 1: 209.2>Q3:94.0) and internal standard (Q1: 215.3>Q3:98.2) were collected for 90 sec. The peak area was integrated by Xcalibur Quan software. The ratios between the kynurenine generated in the reaction and 2D6-Kynurenine spiked-in internal standard were used to generate percentage inhibition and IC50 values. Compounds were titrated and IC50's were calculated by 4 parameter sigmoidal curve fitting formula.

Sequence of IDO1 in Hela cells stimulated with IFNγ (P14902 whole entry): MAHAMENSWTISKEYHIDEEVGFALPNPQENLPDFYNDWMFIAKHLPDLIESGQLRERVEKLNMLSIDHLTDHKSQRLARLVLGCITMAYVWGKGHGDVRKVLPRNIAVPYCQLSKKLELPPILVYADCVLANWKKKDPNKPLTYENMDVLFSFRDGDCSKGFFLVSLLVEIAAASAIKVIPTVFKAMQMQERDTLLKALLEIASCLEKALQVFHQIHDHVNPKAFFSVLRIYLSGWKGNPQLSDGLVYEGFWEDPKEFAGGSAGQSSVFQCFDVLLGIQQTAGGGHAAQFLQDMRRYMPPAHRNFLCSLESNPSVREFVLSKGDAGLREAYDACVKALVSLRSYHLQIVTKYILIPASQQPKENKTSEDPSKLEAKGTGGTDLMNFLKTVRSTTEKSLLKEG
Sequence of HIS-tagged IDO1 protein (P14902 whole entry): as above
Sequence of IDO1 in human whole blood stimulated with LPS and IFNγ (P14902 whole entry): as above

Row | IC50 (HIS-tagged IDO1 protein) [µM] | IC50 [1] [µM] | IDO1 human whole blood assay, IC50 [2] [µM] | SMILES
1 | 0.0507 | 0.0421 | 0.3142 | CC(=O)N[C@H]1C[C@@H](Oc2nonc2/C(=N/O)N[C@H]2Cc3ccc(F)cc32)C1 [Example 36, N-{cis-3-[(4-{N-[(7S)-4-fluorobicyclo[4.2.0]octa-1,3,5-trien-7-yl]-N′-hydroxycarbamimidoyl}-1,2,5-oxadiazol-3-yl)oxy]cyclobutyl}acetamide]
2 | 0.0678 | 0.0749 | 0.5186 | O=C(CO)N[C@H]1C[C@@H](Oc2nonc2/C(=N/O)N[C@H]2Cc3ccc(F)cc32)C1 [Example 38, N-{cis-3-[(4-{N-[(7S)-4-fluorobicyclo[4.2.0]octa-1,3,5-trien-7-yl]-N′-hydroxycarbamimidoyl}-1,2,5-oxadiazol-3-yl)oxy]cyclobutyl}-2-hydroxyacetamide]
3 | 0.049 | 0.04 | 0.3876 | NC(=O)N[C@H]1C[C@@H](Oc2nonc2/C(=N/O)N[C@H]2Cc3ccc(F)cc32)C1 [Example 42, 4-{[cis-3-(carbamoylamino)cyclobutyl]oxy}-N-[(7S)-4-fluorobicyclo[4.2.0]octa-1,3,5-trien-7-yl]-N′-hydroxy-1,2,5-oxadiazole-3-carboximidamide]
4 | 0.0366 | 0.0454 | 1.44 | NS(=O)(=O)N[C@H]1C[C@@H](Oc2nonc2/C(=N/O)N[C@H]2Cc3ccc(F)cc32)C1 [Example 43, N-[(7S)-4-fluorobicyclo[4.2.0]octa-1,3,5-trien-7-yl]-N′-hydroxy-4-{[cis-3-(sulfamoylamino)cyclobutyl]oxy}-1,2,5-oxadiazole-3-carboximidamide]
5 | 0.0566 | 0.0499 | 0.5006 | O=C(N1CC(Oc2nonc2/C(=N/O)N[C@H]2Cc3ccc(F)cc32)C1)C1(O)CC1 [Example 47, N-[(7S)-4-fluorobicyclo[4.2.0]octa-1,3,5-trien-7-yl]-N′-hydroxy-4-{[1-(1-hydroxycyclopropane-1-carbonyl)azetidin-3-yl]oxy}-1,2,5-oxadiazole-3-carboximidamide]
6 | 0.102 | 0.0884 | 0.4003 | C[C@H](O)C(=O)N1CC(Oc2nonc2/C(=N/O)N[C@H]2Cc3ccc(F)cc32)C1 [Example 48, N-[(7S)-4-fluorobicyclo[4.2.0]octa-1,3,5-trien-7-yl]-N′-hydroxy-4-({1-[(2S)-2-hydroxypropanoyl]azetidin-3-yl}oxy)-1,2,5-oxadiazole-3-carboximidamide]
7 | 1.49 | 1.34 | 0.3861 | O=C(CO)N[C@H]1C[C@H](Oc2nonc2/C(=N/O)N[C@H]2Cc3ccc(F)cc32)C1 [Example 56, N-{trans-3-[(4-{N-[(7S)-4-fluorobicyclo[4.2.0]octa-1,3,5-trien-7-yl]-N′-hydroxycarbamimidoyl}-1,2,5-oxadiazol-3-yl)oxy]cyclobutyl}-2-hydroxyacetamide]
8 | 0.215 | 0.328 | 0.9549 | NC(=O)N[C@H]1C[C@H](Oc2nonc2/C(=N/O)N[C@H]2Cc3ccc(F)cc32)C1 [Example 57, 4-{[trans-3-(carbamoylamino)cyclobutyl]oxy}-N-[(7S)-4-fluorobicyclo[4.2.0]octa-1,3,5-trien-7-yl]-N′-hydroxy-1,2,5-oxadiazole-3-carboximidamide]
